# Assay results from patent publication US20220274967A1, “BCAT MODULATION” (Icagen, LLC, priority 2019, published 2022).
# pIC50: −log10 of the molar value.
# Tests used:
# [1] = target: T1, BCAT1 (Homo sapiens, UniProt P54687); assay: BCAT1 enzyme inhibition (human), Glutamate Glo luminescence; assay type: biochemical
# T1 sequence (P54687 1-386): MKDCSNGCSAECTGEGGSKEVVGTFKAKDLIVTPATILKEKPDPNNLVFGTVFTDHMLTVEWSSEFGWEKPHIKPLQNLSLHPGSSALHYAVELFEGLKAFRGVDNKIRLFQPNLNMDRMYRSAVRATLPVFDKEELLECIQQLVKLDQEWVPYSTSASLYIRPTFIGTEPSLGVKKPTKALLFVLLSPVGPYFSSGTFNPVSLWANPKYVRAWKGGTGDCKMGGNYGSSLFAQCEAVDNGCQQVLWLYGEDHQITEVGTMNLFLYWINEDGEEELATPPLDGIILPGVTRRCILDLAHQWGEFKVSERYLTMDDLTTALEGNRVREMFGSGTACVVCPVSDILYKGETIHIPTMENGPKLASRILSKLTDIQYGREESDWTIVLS
# In short: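 BCAT1 enzyme (0.06 ug/ml final) was preincubated with compound (3-0.0001 μM, 0.3% DMSO) for 10 or 60 min at room temperature in 50 mM Tris/0.05% TWEEN-20. The reaction then ran 10 min with 300 μM L-leucine and 250 μM alpha-ketoglutaric acid, was acid-quenched, and glutamate was read by luminescence. IC50 came from a 4-parameter fit, normalized to 10 μM VS558CSA inhibition.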
# [2] = 3-HIB assay in vitro, direct MS assay of conditioned media; assay type: cell-based, human; details: GM00371 cells, 24 hours; read-out: 3HIB INHIBITION IC50 (μM) MEAN GM00371 cells Direct MS Assay
# Procedure: Cell Plating: Cells (Coriell Institute GM00371 cells) were plated (96-well clear bottom sterile plate; Greiner 655098) at 10,000 cells/0.1 mL in Eagle's minimum essential medium (EMEM)/15% FBS (Gibco 16000-044) with a Combi dispenser in a cell culture hood and incubated at 37° C. and 5% CO2 overnight.
# Compound Dilution: Compound were prepared as 33.3× intermediate dilution in DMSO in 96 well round polystyrene plates. For 30 μM final maximum start with 30 μL of 10 mM in DMSO. 10-12 1:3 serial dilutions were prepared from left to right (20 μL+40 μL DMSO). A 10× secondary dilution was prepare in EMEM by taking 7.5 μL 33.3× and transfer to replicate 96 well round polystyrene plates and then adding 242.5 μL EMEM A 1× final dilution in EMEM was prepared by taking 50 μL 10× dilution and transferring to replicate 96 well polypropylene assay block (Costar 3956) and adding 450 μL EMEM A control was prepared for maximal compound inhibition by taking 20 μL 10 mM Reference Compound A and adding 40 μL DMSO for a concentration of 3.3 mM To 7.5 μL of the 3.3 mM Reference Compound A solution and added 242.5 μL EMEM to make a 100 μM solution. The subsequent Reference Compound A solution was diluted with EMEM to achieve a final concentration of 10 μM. The structure of Reference Compound A is:
# A control was prepared for maximal compound toxicity by taking 7.5 μL Reference Compound B and 242.5 μL EMEM to make […]. 50 μL of that 100 μM Reference Compound B solution was combined with 450 μL EMEM to achieve a concentration of 30 μM. The structure of Reference Compound B is
# A DMSO Control was prepared by dilution 7.5 μL with 242.5 μL EMEM and taking 50 μL of the subsequent solution and diluting with 450 μL EMEM.
# Compound Treatment: Media was aspirated from the cells and 100 μL of D-PBS (ThermoFisher 14190144) was added and then removed. 100 μL of diluted compound was added to the cells in the place and the cells were incubated at 37° C. and 5% CO2 for 24 hours.
# Collection of Conditioned Media: For 3HIB MS detection: 20 μL conditioned media was removed from the cells and was transferred to a labeled replicate 96 well polypropylene assay plate (VWR 62408-946). And the plate was heat sealed and stored at −80° C.
# 3HIB Derivatization (Generalized SOP): The media collected for 3HIB MS detection was derivatized under the following conditions. Buffer: 0.1M 1-Ethyl-3-(3-dimethylaminopropyl)carbodiimide (EDC) dissolved in 0.1 M 2-(N-morpholino)ethanesulfonic acid ([…]) adjusted to pH 5.6. Buffer prep: weighed 10.6 g MES (Sigma #M-5287) per 500 mL HPLC grade H2O. Stored at 4° C.; 0.1M EDC: Weighed 1.971 g EDC (#E-1769) per 100 mL MES. Adjusted pH to 5.6 with ˜40 drops of 1N NaOH and stored at 4° C. Buffer has a short half-life should be used within two weeks.
# Derivatization: To 20 μL sample was added 60 μL 5 uM 3HIB-4C13 internal standard followed by 20 μL EDC in MES and 100 μL MES. The plate was sealed and incubate at 50° C. for […] then centrifuged at 4000 rpm at 6° C. for 10 minutes. LC-MS analysis was then conducted and the data was processed using standard methods.
# [3] = tested on: GM00371 cells; assay: Viability assay (Cell titer glo) in the 3-HIB assay; assay type: cell-based, human; details: 24 hours, read-out: 3HIB INHIBITION IC50 (μM) MEAN GM00371 cells Viablility Assay
# In short: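 GM00371 cells (10,000/well, EMEM/15% FBS) were exposed for 24 h at 37 °C to compounds in 1:3 serial dilution from 30 μM top concentration in EMEM. Reference Compound B at 30 μM served as maximal-toxicity control. Viability read as CellTiter-Glo luminescence.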
# [4] = tested on: branched chain amino acids (BCAA) in plasma; assay: Repetitive treatment with BCAT2 inhibitor compound: plasma amino acids; assay type: in vivo; details: mice
# Procedure: Male, C57Black/6J mice (6-7 weeks, Jackson Laboratories, Bar Harbor, Me.) were used in all in vivo experiments. Animals were maintained on a 12 hour light/dark reverse cycle in a temperature- and humidity-controlled room with access to food and water ad libitum. Before the experiment, animals underwent a 7-day acclimation period.
# All biological samples were stored in −80° C. until analysis. […] In particular, 20 μL of mouse plasma were precipitated with 180 μL acetonitrile containing 5 μg/ml D8-Valine. Samples were vortexed vigorously and centrifuged to remove precipitated protein. 2 μL of supernatant was injected on a Phenomenex Gemini C18 column (4.6 mm×150 mm, 5 μm particle size) for separation under a linear gradient from 2% ACN to 50% ACN in 10 minutes followed by a 7 minute equilibration with 2% ACN.
# Animals were grouped based on pair matched body weight and received either vehicle (0.5% HPMC K100+0.1 Tween 80, pH=10.0) or a daily dose of compound (200 mg/kg, PO) for 9 days. From day 1 to day 5, all animals were provided with normal diet. […] On day 9, blood, bladder urine as well as tissue samples (liver, brain, heart, muscle and kidney) were harvested 4 hours after the last dose. Three mice in each treatment/diet group were retained for a 3-day recovery phase observation. On day 12, blood, bladder urine as well as tissue samples (liver, brain, heart, muscle and kidney) were harvested. During the entire study course (day 1 to day 12), mice were able to access food and water freely. Body weights were measured daily and any abnormal behavior for toxicity signs was recorded.
# [5] = Repetitive treatment: body weight and toxicity signs; assay type: in vivo; details: mice, 200 mg/kg PO once a day for 9 days and 3-day recovery
# Procedure: […]. Animals were maintained on a 12 hour light/dark reverse cycle in a temperature- and humidity-controlled room with access to food and water ad libitum. Before the experiment, animals underwent a 7-day acclimation period. All procedures involving mice were approved by the Institutional Animal Care and Use Committee of the University of Arizona and were conducted in accordance with Principles of Laboratory Animal Care (National Institutes of Health Publication 85-23, revised in 1985).
# Animals were grouped based on pair matched body weight and received either vehicle (0.5% HPMC K100+0.1 Tween 80, pH=10.0) or a daily dose of compound (200 mg/kg, PO) for 9 days. From day 1 to day 5, all animals were provided with normal diet. On day 6, the diet was switched to a precursor enriched chow (700% isoleucine, valine and threonine enriched, TD. 140829; Envigo) for half of the animals; the other half were still fed with normal diet. On day 9, blood, bladder urine as well as tissue samples (liver, brain, heart, muscle and kidney) were harvested 4 hours after the last dose. Three mice in each treatment/diet group were retained for a 3-day recovery phase observation. On day 12, blood, bladder urine as well as tissue samples (liver, brain, heart, muscle and kidney) were harvested. […] Body weights were measured daily and any abnormal behavior for toxicity signs was recorded.
# [6] = tested on: propionyl carnitine; assay: Propionyl carnitine in conditioned media of propionic acidemia fibroblasts; assay type: cell-based, human; details: 24 hours, increasing concentrations, FIG. 1
# Procedure: could inhibit levels of the downstream metabolite propionyl carnitine, which is found to be elevated in patients with propionic acidemia, by analyzing propionyl carnitine levels in conditioned media in human fibroblasts from a patient with propionic acidemia treated with a dose response of the compound of the disclosure.
# (§1) Primary human fibroblasts from a patient with propionic acidemia (Coriell #GM00371) were plated in complete media (EMEM, 15% FBS) in a 96-well plate at 10,000 cells/well and incubated overnight at 37° C. at 5% CO2. Compounds were serially diluted initially in DMSO then into serum-free EMEM media. The cells were then washed with D-PBS before addition of the media containing the diluted compound, and were then incubated at 37° C. at 5% CO2 overnight.
# The conditioned media was removed from cells after 24 hours of compound treatment and was diluted 2× with D3-propionyl carnitine internal standard diluted in MS-grade methanol. Plates were sealed and samples were frozen at −80DGC for more than 30 minutes, followed by thawing at room temperature and centrifugation for 10 minutes at 4000 rpm. The samples were then analyzed for propionyl carnitine by LC-LC/MS using TSQ Vantage using a Kinetex 2.6 μm Biphenyl 2.1×50 mm column with Mobile Phase A of 95% (0.1% Formic acid in Water)+5% Water and Mobile Phase B of 95% McOH+5% (0.1% Formic acid in Water).
# [7] = tested on: Primary human fibroblasts from a patient with propionic acidemia (Coriell #GM00371); assay: Cell viability (cell Titer-Glo) of propionic acidemia fibroblasts; assay type: cell-based; details: FIG. 1
# Procedure: as §1
# Cell viability was also determined with cell Titer-Glo reagent (Promega) by addition of equal volumes of D-PBS and Cell Titer-Glo reagent to cell wells and following manufacturer's recommendations for detection of luminescence signal.
# [8] = 200 mg/kg PO for 9 days, normal diet, FIG. 4A
# [9] = 200 mg/kg PO, Day 9, precursor-enriched diet, FIG. 4B
structure (smiles),measurement,setting,value
CNC(=O)c1ccc2c(c1)nc(-c1ccccn1)n2[C@@H]1CCC[C@H](NC(=O)c2ccc(Br)s2)C1 [Compound 105],pIC50,[1],6.00 to 6.30
same,IC50,[2],0.1 to 0.5 µM
same,IC50,[3],0.5 to 1 µM
CNC(=O)c1ccc2c(c1)nc(-c1ccccn1)n2C1CCCC(NC(=O)c2ccc(Br)s2)C1 (stereo not drawn) [drawing 85],plasma level of Leu,[4]; [8],significantly increased
same,plasma level of Ser,[4]; [8],not
same,plasma level of Val,[4]; [8],significantly increased
same,"levels of BCAAs in plasma, compound vs vehicle",[4]; [9],no significant changes
same,plasma level of leucine,[4]; [9],slight but significant decrease
same,abnormal behaviors reflecting toxicities,[5],no obvious abnormal behaviors reflecting toxicities
same,body weight,[5]; FIG. 3A,no significant loss
CNC(=O)c1ccc2c(c1)nc(-c1ccccn1)n2C1CCCC(NC(=O)c2ccc(Br)s2)C1 (stereo not drawn) [drawing 84],propionyl carnitine levels,[6],inhibited
same,impact on cell viability,[7],little impact
